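The compound was tested at five concentrations on cells cultured in 96-well plates, with a 48-hour exposure period. GI50 marks 50% less growth. The concentration for full growth arrest is given as TGI.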
Experiments:
Assay in all cases: NCI-60 cell line screen, 48 h
M14 melanoma = tested on: M14 melanoma
SF-268 CNS = tested on: SF-268 CNS
A498 renal = tested on: A498 renal
NCI-H522 lung = tested on: NCI-H522 lung
COLO 205 colon = tested on: COLO 205 colon
KM12 colon = tested on: KM12 colon
U251 CNS = tested on: U251 CNS
SK-MEL-5 melanoma = tested on: SK-MEL-5 melanoma
A549 NSCLC = tested on: A549 NSCLC
SN12C renal = tested on: SN12C renal
SNB-75 CNS = tested on: SNB-75 CNS
IGROV1 ovarian = tested on: IGROV1 ovarian
PC-3 prostate = tested on: PC-3 prostate
SK-MEL-28 melanoma = tested on: SK-MEL-28 melanoma
CAKI-1 renal = tested on: CAKI-1 renal
SR leukemia = tested on: SR leukemia
MCF7 breast = tested on: MCF7 breast
UACC-62 melanoma = tested on: UACC-62 melanoma
HL-60(TB) leukemia = tested on: HL-60(TB) leukemia
HOP-62 NSCLC = tested on: HOP-62 NSCLC
UACC-257 melanoma = tested on: UACC-257 melanoma
TK-10 renal = tested on: TK-10 renal
LOX IMVI melanoma = tested on: LOX IMVI melanoma
SK-OV-3 ovarian = tested on: SK-OV-3 ovarian
RPMI-8226 leukemia = tested on: RPMI-8226 leukemia
NCI-H460 lung = tested on: NCI-H460 lung
HCT-116 colon = tested on: HCT-116 colon
NCI-H226 lung = tested on: NCI-H226 lung
DU-145 prostate = tested on: DU-145 prostate
HS 578T breast = tested on: HS 578T breast

CCCCN1C(=O)/C(=C\C(=O)c2cc3ccccc3oc2=O)c2ccccc21
TGI (M14 melanoma): 29.3 µM | GI50 (SF-268 CNS): 16.9 µM | TGI (SF-268 CNS): 36.3 µM | GI50 (A498 renal): > 100 µM | TGI (A498 renal): > 100 µM | GI50 (NCI-H522 lung): 14.3 µM | TGI (NCI-H522 lung): 28.7 µM | GI50 (COLO 205 colon): 17 µM | TGI (COLO 205 colon): 31.1 µM | GI50 (KM12 colon): > 100 µM | TGI (KM12 colon): > 100 µM | GI50 (U251 CNS): > 100 µM | TGI (U251 CNS): > 100 µM | GI50 (SK-MEL-5 melanoma): 48.7 µM | TGI (SK-MEL-5 melanoma): > 100 µM | GI50 (A549 NSCLC): > 100 µM | TGI (A549 NSCLC): > 100 µM | GI50 (SN12C renal): 14.7 µM | TGI (SN12C renal): 30 µM | GI50 (SNB-75 CNS): 19 µM | TGI (SNB-75 CNS): > 100 µM | GI50 (IGROV1 ovarian): 24.5 µM | TGI (IGROV1 ovarian): 94.8 µM | GI50 (PC-3 prostate): 32.2 µM | TGI (PC-3 prostate): > 100 µM | GI50 (SK-MEL-28 melanoma): 15.5 µM | TGI (SK-MEL-28 melanoma): 29.1 µM | GI50 (CAKI-1 renal): 14.2 µM | TGI (CAKI-1 renal): 27.8 µM | GI50 (SR leukemia): 23 µM | TGI (SR leukemia): 86.1 µM | GI50 (MCF7 breast): 12.6 µM | TGI (MCF7 breast): 28.7 µM | GI50 (UACC-62 melanoma): 14.6 µM | TGI (UACC-62 melanoma): 29.7 µM | GI50 (HL-60(TB) leukemia): 3.06 µM | TGI (HL-60(TB) leukemia): 11.9 µM | GI50 (HOP-62 NSCLC): > 100 µM | TGI (HOP-62 NSCLC): > 100 µM | GI50 (UACC-257 melanoma): 14.7 µM | TGI (UACC-257 melanoma): 31.3 µM | GI50 (TK-10 renal): 20.9 µM | TGI (TK-10 renal): 35.8 µM | GI50 (LOX IMVI melanoma): 15.2 µM | TGI (LOX IMVI melanoma): 28.7 µM | GI50 (SK-OV-3 ovarian): > 100 µM | TGI (SK-OV-3 ovarian): > 100 µM | GI50 (RPMI-8226 leukemia): 19.9 µM | TGI (RPMI-8226 leukemia): 54.4 µM | GI50 (NCI-H460 lung): > 100 µM | TGI (NCI-H460 lung): > 100 µM | GI50 (HCT-116 colon): 16.3 µM | TGI (HCT-116 colon): 31.1 µM | GI50 (NCI-H226 lung): 14.4 µM | TGI (NCI-H226 lung): 31.7 µM | GI50 (DU-145 prostate): 16.7 µM | TGI (DU-145 prostate): 33.2 µM | GI50 (HS 578T breast): 20.7 µM | TGI (HS 578T breast): > 100 µM
